Assay results taken from ChEMBL document CHEMBL3864160, “Discovery of fluorobenzimidazole HCV NS5A inhibitors” (Bioorg Med Chem Lett, 2016).

Tests used:
[1] = Inhibition of Hepatitis C virus genotype 1a H77 replicon NS5A transfected in human HuH7 cells assessed as decrease in replication of viral replicon after 4 days by luciferase reporter gene assay; assay type: cell-based, Hepatitis C virus (isolate H77); conditions: Huh-7, 96 h
[2] = Inhibition of Hepatitis C virus genotype 1b Con1 replicon NS5A transfected in human HuH7 cells assessed as decrease in replication of viral replicon after 4 days by luciferase reporter gene assay; assay type: cell-based, Hepatitis C virus (isolate Con1); conditions: Huh-7, 96 h
[3] = Inhibition of Hepatitis C virus genotype 2a replicon NS5A transfected in human HuH7 cells assessed as decrease in replication of viral replicon after 4 days by luciferase reporter gene assay; assay type: cell-based, Hepatitis C virus subtype 2a; conditions: Huh-7, 96 h
[4] = Inhibition of Hepatitis C virus genotype 2b replicon NS5A transfected in human HuH7 cells assessed as decrease in replication of viral replicon after 4 days by luciferase reporter gene assay; assay type: cell-based, Hepatitis C virus subtype 2b; conditions: Huh-7, 96 h
[5] = Inhibition of Hepatitis C virus genotype 3a replicon NS5A transfected in human HuH7 cells assessed as decrease in replication of viral replicon after 4 days by luciferase reporter gene assay; assay type: cell-based, Hepatitis C virus subtype 3a; conditions: Huh-7, 96 h
[6] = Inhibition of Hepatitis C virus genotype 4a replicon NS5A transfected in human HuH7 cells assessed as decrease in replication of viral replicon after 4 days by luciferase reporter gene assay; assay type: cell-based, Hepatitis C virus subtype 4a; conditions: Huh-7, 96 h
[7] = Inhibition of Hepatitis C virus genotype 6a replicon NS5A transfected in human HuH7 cells assessed as decrease in replication of viral replicon after 4 days by luciferase reporter gene assay; assay type: cell-based, Hepatitis C virus subtype 6a; conditions: Huh-7, 96 h
[8] = Inhibition of Hepatitis C virus genotype 1a H77 replicon NS5A transfected in human HuH7 cells assessed as decrease in replication of viral replicon in presence of 40% human plasma after 4 days by luciferase reporter gene assay; assay type: cell-based, Hepatitis C virus (isolate H77); conditions: Huh-7, Plasma, 96 h
[9] = Inhibition of Hepatitis C virus genotype 1b Con1 replicon NS5A transfected in human HuH7 cells assessed as decrease in replication of viral replicon in presence of 40% human plasma after 4 days by luciferase reporter gene assay; assay type: cell-based, Hepatitis C virus (isolate Con1); conditions: Huh-7, Plasma, 96 h

Row | SMILES | EC50 [1] [pM] | EC50 [2] [pM] | EC50 [3] [pM] | EC50 [4] [pM] | EC50 [5] [pM] | EC50 [6] [pM] | EC50 [7] [pM] | EC50 [8] [pM] | EC50 [9] [pM]
1 | COC(=O)N[C@H](C(=O)N1CCC[C@H]1c1cc2nc(-c3ccc(-c4ccc5[nH]c([C@@H]6CCCN6C(=O)[C@@H](NC(=O)OC)C(C)C)cc5n4)cc3)ccc2[nH]1)C(C)C | > 100000 | 7440 | > 100000 | > 100000 | > 100000 | > 100000 | – | – | –
2 | COC(=O)N[C@H](C(=O)N1CCC[C@H]1c1nc2c(C)c([C@H]3CC[C@H](c4ccc5[nH]c([C@@H]6CCCN6C(=O)[C@@H](NC(=O)OC)C(C)C)nc5c4C)N3c3ccc(C(C)(C)C)cc3)ccc2[nH]1)C(C)C | 10 | 10 | 594 | 25 | 20 | 5 | 132 | 520 | 557
3 | COC(=O)N[C@H](C(=O)N1CCC[C@H]1c1nc2cc(-c3ccc(-c4cc(C(F)(F)F)c5[nH]c([C@@H]6CCCN6C(=O)[C@@H](NC(=O)OC)C(C)C)nc5c4)cc3)cc(C(F)(F)F)c2[nH]1)C(C)C | 23000 | 107 | > 100000 | > 10000 | > 100000 | 1900 | > 10000 | – | –
4 | COC(=O)N[C@H](C(=O)N1CCC[C@H]1c1nc2cc(-c3ccc(-c4cc(OC)c5[nH]c([C@@H]6CCCN6C(=O)[C@@H](NC(=O)OC)C(C)C)nc5c4)cc3)cc(OC)c2[nH]1)C(C)C | 628 | 95 | > 100000 | 56800 | 92400 | 162 | > 100000 | – | –
5 | COC(=O)N[C@H](C(=O)N1CCC[C@H]1c1nc2c(F)c([C@H]3CC[C@H](c4ccc5[nH]c([C@@H]6CCCN6C(=O)[C@@H](NC(=O)OC)C(C)C)nc5c4F)N3c3ccc(C(C)(C)C)cc3)ccc2[nH]1)C(C)C | 22 | 10 | 612 | 9 | 20 | 7 | 114 | 823 | 211
6 | COC(=O)N[C@H](C(=O)N1CCC[C@H]1c1nc2cc(-c3ccc(-c4cc(C)c5[nH]c([C@@H]6CCCN6C(=O)[C@@H](NC(=O)OC)C(C)C)nc5c4)cc3)cc(C)c2[nH]1)C(C)C | 980 | 31 | > 100000 | 3930 | 17500 | 404 | 22900 | – | –
7 | COC(=O)N[C@H](C(=O)N1CCC[C@H]1c1nc2cc(-c3ccc(-c4cnc5[nH]c([C@@H]6CCCN6C(=O)[C@@H](NC(=O)OC)C(C)C)nc5c4)cc3)cnc2[nH]1)C(C)C | 5580 | 1540 | > 100000 | 6500 | > 100000 | 1100 | – | – | –
8 | COC(=O)N[C@H](C(=O)N1CCC[C@H]1c1nc2c(Cl)c([C@H]3CC[C@H](c4ccc5[nH]c([C@@H]6CCCN6C(=O)[C@@H](NC(=O)OC)C(C)C)nc5c4Cl)N3c3ccc(C(C)(C)C)cc3)ccc2[nH]1)C(C)C | 34 | 13 | 1830 | 38 | 37 | 10 | 590 | 1850 | 731
9 | COCc1c(-c2ccc(-c3ccc4[nH]c([C@@H]5CCCN5C(=O)[C@@H](NC(=O)OC)C(C)C)nc4c3COC)cc2)ccc2[nH]c([C@@H]3CCCN3C(=O)[C@@H](NC(=O)OC)C(C)C)nc12 | 1180 | 193 | > 100000 | 77500 | 15500 | 1190 | > 100000 | – | –

Other lines, results leading:

Row | EC50 [1] [pM] | EC50 [2] [pM] | EC50 [3] [pM] | EC50 [4] [pM] | EC50 [5] [pM] | EC50 [6] [pM] | EC50 [7] [pM] | EC50 [8] [pM] | EC50 [9] [pM] | SMILES
10 | 1470 | 8 | 9180 | 148 | 4450 | < 30 | 3240 | – | – | COC(=O)N[C@H](C(=O)N1CCC[C@H]1c1nc2cc(-c3ccc(-c4cc5nc([C@@H]6CCCN6C(=O)[C@@H](NC(=O)OC)C(C)C)[nH]c5cc4C)cc3)c(C)cc2[nH]1)C(C)C
11 | 25500 | 93 | > 100000 | 88600 | > 100000 | 548 | > 100000 | – | – | COC(=O)N[C@H](C(=O)N1CCC[C@H]1c1nc2cc(-c3ccc(-c4cc5nc([C@@H]6CCCN6C(=O)[C@@H](NC(=O)OC)C(C)C)[nH]c5cc4OC)cc3)c(OC)cc2[nH]1)C(C)C
12 | 272 | 22 | 75500 | 60 | 1120 | 62 | – | – | – | COC(=O)N[C@H](C(=O)N1CCC[C@H]1c1nc2ccc(-c3ccc(-c4ccc5nc([C@@H]6CCCN6C(=O)[C@@H](NC(=O)OC)C(C)C)[nH]c5c4)cc3)cc2[nH]1)C(C)C
13 | 38 | 14 | 28000 | 320 | 104 | 14 | 7050 | – | – | COC(=O)N[C@H](C(=O)N1CCC[C@H]1c1nc2c(C)c(-c3ccc(-c4ccc5[nH]c([C@@H]6CCCN6C(=O)[C@@H](NC(=O)OC)C(C)C)nc5c4C)cc3)ccc2[nH]1)C(C)C
14 | 129 | 13 | 40200 | 222 | 645 | 330 | 4750 | – | – | COC(=O)N[C@H](C(=O)N1CCC[C@H]1c1nc2c(F)c(-c3ccc(-c4ccc5[nH]c([C@@H]6CCCN6C(=O)[C@@H](NC(=O)OC)C(C)C)nc5c4F)cc3)ccc2[nH]1)C(C)C
15 | 12000 | 6 | 49600 | 4490 | 43400 | 49 | 21500 | – | – | COC(=O)N[C@H](C(=O)N1CCC[C@H]1c1nc2cc(-c3ccc(-c4cc5nc([C@@H]6CCCN6C(=O)[C@@H](NC(=O)OC)C(C)C)[nH]c5cc4C(F)(F)F)cc3)c(C(F)(F)F)cc2[nH]1)C(C)C
16 | 579 | < 30 | 13800 | 516 | 6490 | 40 | – | – | – | COC(=O)N[C@H](C(=O)N1CCC[C@H]1c1nc2cc(-c3ccc(-c4cc(F)c5[nH]c([C@@H]6CCCN6C(=O)[C@@H](NC(=O)OC)C(C)C)nc5c4)cc3)cc(F)c2[nH]1)C(C)C
17 | 507 | 16 | 43100 | 218 | 1430 | 77 | 17300 | – | – | COC(=O)N[C@H](C(=O)N1CCC[C@H]1c1nc2c(F)c(-c3ccc(-c4c(F)cc5[nH]c([C@@H]6CCCN6C(=O)[C@@H](NC(=O)OC)C(C)C)nc5c4F)cc3)c(F)cc2[nH]1)C(C)C
18 | 76 | < 30 | 31000 | < 30 | 444 | 8 | 274 | – | – | COC(=O)N[C@H](C(=O)N1CCC[C@H]1c1nc2cc(-c3ccc(-c4cc5nc([C@@H]6CCCN6C(=O)[C@@H](NC(=O)OC)C(C)C)[nH]c5cc4F)cc3)c(F)cc2[nH]1)C(C)C
19 | 1120 | 283 | > 100000 | 1430 | 6690 | 1840 | – | – | – | COC(=O)N[C@H](C(=O)N1CCC[C@H]1c1nc2nc(-c3ccc(-c4ccc5[nH]c([C@@H]6CCCN6C(=O)[C@@H](NC(=O)OC)C(C)C)nc5n4)cc3)ccc2[nH]1)C(C)C
